Test results: patent publication US12241099B2, “Peptide therapeutics for treating Alzheimer's disease and related conditions” (The Board of Regents of the University of Oklahoma, priority 2018, dated 2025)
Residues, ends and D or L forms follow the SMILES beside them.

Experiments:
Aβ1-42 [1] = target: T1, Aβ1-42 (Homo sapiens, UniProt P05067); assay: Enzyme activity assay (cleavage of Aβ1-42, MALDI-TOF); assay type: biochemical; set-up: used to monitor the formation of Aβ1-42 peptide fibrils; purchased Anaspec
T1 sequence (P05067 672-713 limits assumed): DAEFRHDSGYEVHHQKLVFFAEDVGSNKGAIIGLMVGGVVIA
Method: Aβ1-42 treated with hexafluoroisopropanol was purchased from Bachem and reconstituted in anhydrous DMSO at 5 mM. Reactions were set up with increasing concentrations of enzyme (CAP37, NE or CG) and 10 μM Aβ1-42 substrate in PBS, and incubated at 37° C. for 1 hour. Reactions were stopped by the addition of acetonitrile and trifluoroacetic acid (TFA) to final concentrations of 7.5% and 0.5% respectively. Internal standard (Aβ40-1 from Bachem) dissolved in 10% acetic acid was added to a final concentration of 8 μg/ml. A 10 μl aliquot of this mixture was desalted on a C18 OMIX tip from Agilent Technologies. First, the C18 resin was rinsed with 2×10 μl of 50% methanol, then 2×10 μl of equilibration buffer (5% acetonitrile 0.5% TFA), then the sample was applied to the resin by pipetting 10 times through the resin, which was then washed twice with equilibration buffer and eluted with 75% acetonitrile 0.1% TFA.
Desalted samples were analyzed by Matrix Assisted Laser Desorption/Ionization-Time of Flight mass spectrometry (MARLDI-TOF) using a Bruker Ultraflex II instrument and Flex Control Software. […] Chromatographs were analyzed with Flex Analysis software. […] The ratio of the Aβ1-42 peak intensity divided by the internal standard peak intensity was calculated for each spot, and triplicate spots were averaged to determine the amount of uncleaved Aβ in each enzymatic reaction.

[2] = system: mouse neuroblastoma cell line Neuro-2a; assay: Neurotoxicity assay of Aβ1-42 fibrils/oligomers (trypan blue cell death); assay type: cell-based; conditions: oligomers formed 15 min in presence of increasing concentrations; 18 μM Aβ1-42 on cells, 24 hours
Method: A mouse neuroblastoma cell line Neuro-2a from ATCC was used for these experiments. Cells were grown and seeded in 96 well plates at 20,000 cells per well in complete medium (MEM α, nucleosides, no phenol red from Gibco, with 10% heat inactivated fetal bovine serum from Gibco, and penicillin/streptomycin from Lonza). At 24 hours after seeding, cells were washed with warmed MEM α, and then incubated in 90 μl MEM α+N2 Supplements+20 μl test sample (Aβ1-42 prepared as described below). Cells were incubated another 24 hours at 37° C., and then dislodged by pipetting up and down vigorously. 10 μl of cells were added to 10 μl trypan blue dye (0.4% solution) from BioRad, mixed and counted in a BioRad TC20 cell counter. The percent of living and dead cells was recorded for each well. In the case of the water and Triton X100 controls, 20 μl MEM α+N2 Supplements was added instead of the test sample and, just before counting the cells, 20 μl of medium was removed and replaced with 20 μl water or Triton X100 at a final concentration of 0.1%.
Monomeric Aβ1-42 (hexafluoroisopropanol treated Aβ1-42) from Bachem was reconstituted at 5 mM in anhydrous DMSO. Untreated Aβ1-42 from CS Bio was also used in these experiments. It was first treated with 1 mM in hexafluoroisopropanol from Sigma Aldrich, incubated 30 min at room temperature, and left open to dry in the fume hood overnight. It was then vacuum desiccated for 1 hour at room temperature. Dry films of Aβ1-42 were stored at −20° C. until use to keep it under a monomeric form. Aβ1-42 from CS Bio was also reconstituted in anhydrous DMSO at 5 mM before use.
To prepare the fibril and oligomer test samples, monomeric Aβ1-42 was placed under conditions favoring either formation of fibrils or oligomers. To form fibrils, 100 μM Aβ1-42 was added to Anaspec fibrillation buffer A±neutrophil protein, and incubated at 37° C. 24 hours before addition to the cells at a final concentration of 18 μM. Neutrophil proteins were used at Aβ/Protein ratios that led to 50% inhibition of fibrillation (IC50), previously determined for each protein in the fibrillation assay. To form oligomers, MEM α+N2 Supplements was used instead of the fibrillation buffer A±increasing concentrations of neutrophil protein or CAP37-derived peptide. Each mixture was then added to a tube containing freshly prepared Aβ1-42 in DMSO at a final concentration of 100 μM, and incubated 15 min at room temperature. These test samples were then tested on the cells at a final concentration of 18 μM.
Oligomers were formed by incubating 100 μM Aβ1-42 in MEMα+N2 Supplements at 4° C. for 3 days. […] Finally, these oligomers were added to neurons at a final concentration of 18 μM, and percent cell death was measured at 24 h.

Aβ1-42 [3] = target: T1, Aβ1-42; assay: Amyloid Beta (1-42) Thioflavin T fibrillation (aggregation) assay; assay type: biochemical; set-up: used to monitor the formation of Aβ1-42 peptide fibrils; purchased Anaspec
Method: The Amyloid Beta (1-42) Thioflavin T Aggregation Kit was purchased from Anaspec and used to monitor the formation of Aβ1-42 peptide fibrils, according to the manufacturer's instructions, with some modifications. Thioflavin T dye was diluted to 250 μM in fibrillation buffer A and kept in the dark until use. […] Neutrophil proteins were tested in the absence and presence of protease inhibitors. […] Chymostatin was dissolved in DMSO and used at 125 μM final concentration in reactions with CG. Reactions were pipetted up and down twice in the wells with a multichannel pipette to ensure mixing, and fluorescence (ΔEX=440 nm, ΔEm=485 nm) was read every 5 minutes for 3 hours on a BioTek Synergy 2 plate reader with Gen 5 software, with a sensitivity set at 65.

Aβ1-42 [4] = target: T1, Aβ1-42; assay: ELISA binding of Aβ1-42 to plate-coated neutrophil proteins and derived peptides; conditions: 150 nM Aβ1-42; plate coated with protein/peptide at 5 μg/ml; no protease inhibitor
Method: CAP37, NE, and CG were purified from human neutrophils and purchased from Athens Research and Technology. BSA was from Sigma Aldrich. CAP37-derived peptides were synthesized by CS Bio Co with a purity >95%. Maxisorp plates from Nunc were coated with 100 μl neutrophil protein, peptide, or BSA diluted at 5 μg/ml in PBS with or without 1 mM PMSF purchased from Sigma Aldrich (for experiments with CAP37, NE, and BSA) or ±125 μM chymostatin purchased from Santa Cruz (for experiments with CG and BSA). Plate coating was done at room temperature for 2 hours with shaking and then at 4° C. overnight. Plates were washed three times in PBST (PBS+0.05% tween), then blocked with 3% BSA in PBST for 1 hour at room temperature with shaking. Plates were washed 3× in PBST, and 150 nM Aβ1-42 (purchased from Bachem and reconstituted in 1 mM NaOH) was added in 0.1% BSA in PBST and incubated 70 minutes at 37° C. Plates were then washed 4 times with PBST and monoclonal mouse anti-amyloid precursor protein/amyloid beta antibody, purchased from Cell Signaling Technology was added at a 1:500 dilution in 1% BSA in PBST and incubated for 1 hour at room temperature with shaking. Plates were washed 4× in PBST and donkey anti mouse HRP-conjugated secondary antibody from Jackson ImmunoResearch Laboratories was added at 1:10,000 in PBST and incubated 1 hour at room temperature with shaking, then washed 4 times in PBST. […] Sulfuric acid (5N) was added to each well to stop the reaction, and the absorbance at 492 nm was read on a Biotek Synergy II plate reader.

enzymatic activity on Aβ1-42 (Aβ1-42 [1]): do not have enzymatic activities | IC50 (Aβ1-42 [3]; at time of complete fibrillation of Aβ1-42 control, no protease inhibitor): ~1000 nM | inhibition of Aβ1-42 fibrillation (in words) (Aβ1-42 [3]; increasing concentrations of peptide, Rfu): able to inhibit fibrillation | molar ratio inhibitor/Aβ1-42 corresponding to IC50 of fibrillation (Aβ1-42 [3]; ratio at IC50): 1/10 | binding of Aβ1-42 (Aβ1-42 [4]): binds
SMILES: CC(C)C[C@H](NC(=O)[C@H](CCCNC(=N)N)NC(=O)CNC(=O)CNC(=O)[C@H](CO)NC(=O)[C@H](CCCNC(=N)N)NC(=O)[C@H](Cc1c[nH]c2ccccc12)NC(=O)[C@H](CO)NC(=O)CNC(=O)[C@H](Cc1c[nH]c2ccccc12)NC(=O)CNC(=O)[C@H](C)NC(=O)[C@@H](NC(=O)[C@H](CCC(N)=O)NC(=O)[C@H](CS)NC(=O)[C@H](CCCNC(=N)N)NC(=O)[C@@H](NC(=O)CN)[C@@H](C)O)C(C)C)C(=O)N[C@@H](CO)C(=O)N[C@@H](CCCNC(=N)N)C(=O)N[C@@H](Cc1ccccc1)C(=O)N1CCC[C@H]1C(=O)N[C@@H](CCCNC(=N)N)C(=O)N[C@@H](Cc1ccccc1)C(=O)N[C@H](C(=O)N[C@@H](CC(N)=O)C(=O)N[C@H](C(=O)O)C(C)C)C(C)C [120-146 WR] (H-GTRCQVAGWGSWRSGGRLSRFPRFVNV-OH; N-terminus and C-terminus assumed)
effect on Aβ1-42 oligomer toxicity [2]: significantly inhibited
